From US20130209515A1, “ANTI-INFECTIVE AND IMMUNOMODULATORY COMPOUNDS” (priority 2005, published 2013)

Tested on: mouse genes
Assay: Whole genome expression in blood of mice after 2AA (Affymetrix GeneChip)
Type: in vivo
Conditions: for Fold Change X14607 Lipocalin 2 / Fold Change AF220015 Rpt-1; regulatory protein, T lymphocyte 1 / Fold Change AF237910 Membrane-spanning 4-domains, subfamily A / Fold Change AI323359 Csfmr, colony stimulating factor IR, regulator of myeloid cell proliferation / Fold Change AI462015 Nuclear factor of kappa light chain gene enhancer in B-cells inhibitor, alpha / Fold Change AI648846 Solute carrier family 6 / Fold Change AV026617 FBJ osteosarcoma oncogene / Fold Change AV229143 Interferon activated gene (202A) / Fold Change AV318494 Myeloid cell leukemia sequence 1 / Fold Change BB193024 Interferon-induced transmembrane protein-2 / Fold Change BB241535 Suppressor of cytokine signaling 3 / Fold Change BB769628 Colony stimulating factor 2 receptor, beta 1 / Fold Change BB784999 Triggering receptor expressed on myeloid cells 1 / Fold Change BB831725 Suppressor of cytokine signaling 3 / Fold Change BC003839 Myeloid cell leukemia sequence 1 (Mcl1) / Fold Change BC010291 Interferon-inducible protein (Cd225) / Fold Change BC011092 Chemokine (C-C) receptor 1 / Fold Change BC011437 IL-1β / Fold Change BC012653 Chemokine (C-X3-C) receptor 1 / Fold Change BC021916 EMAPI, cytokine activity / Fold Change BC022943 Lymphocyte cytosolic protein 1 / Fold Change BE285634 Interleukin-1 receptor accessory protein / Fold Change NM_008039 Receptor activity [formyl peptide receptor, related sequence 2] (Fpr-rs2) / Fold Change NM_008677 p40phox; intracellular signaling cascade neutrophil cytosolic factor 4 (Ncf4) / Fold Change NM_008879 Pls2, L-fimbrin, calcium ion binding lymphocyte cytosolic proteing 1 (Lep 1) / Fold Change NM_009883 Nuclear factor induced by IL-6 (NF-IL6) / Fold Change NM_011087 Paired-Ig-like receptor A1 (Piral) / Fold Change NM_011313 Cacy; calcium binding protein A6 (calcyclin)cyclin-dependent protein kinase / Fold Change NM_011315 Saa-3 lipid transported activity acute phase response / Fold Change NM_011355 PU.1, transcription factor complex cell growth and/or maintenance / Fold Change NM_011940 Interferon-activatable protein (Ifi202) / Fold Change NM_011999 DCIR; C-type (calcium dependent, carbohydrate recognition domain) lectin / Fold Change NM_030691 Integral to membrane immunoglobulin superfamily, member 6 (Igsf6) / Fold Change NM_030694 Interferon-induced transmembrane protein-3 / Fold Change U05264 Glycoprotein 49B (Gp49b) / Fold Change U72644 Leukocyte specific transcript 1: blood
Procedure: To identify how 2AA pre-exposure promotes host defense to better protect against P. aeruginosa infection, we carried out whole genome gene expression studies of mice for several experimental conditions using the mouse full-thickness skin thermal injury infection model, including naïve; BI alone; 2AA treatment alone; 2AA pretreatment plus BI. The mice were injected IP, as we were not yet aware of the improved benefit obtained with IV delivery. Whole blood was collected after 0, 6, 24, 96 and 192 hr post 2AA injection. Also, pretreated BI mice were exposed to 2AA at 1 and 4 days pre-BI, with blood samples collected 24 hr post-BI. The transcriptome profiles were then determined and compared, and genes with statistically significant differences in their expression levels between the samples were further analyzed by pair-wise comparison (see experimental design, section 2.2).
In experiments to determine if T-aminoacetophenone acts as an immunomodulator, eight 6-week old CD-1 male mice were treated intraperitonialy with 500 μl of a 20 mM solution of T-aminoacetophenone in 0.9% NaCl (aq). A control group of mice was administered only 0.9% NaCl. Blood was withdrawn from the mice at time points of 6 hours, 24 hours, 96 hours, and 192 hours, and RNA was extracted from each blood sample.
Mouse GeneChip™ arrays, manufactured by Affymetrix (Santa Clara, Calif.), were used to compare the profile of gene expression in the blood samples of mice. The biotin-labeled cRNA used to hybridize to the GeneChips was prepared from the RNA extracted from the blood samples according to the Affymetrix GeneChip Expression Analysis Technical Manual (Research Genetics, Huntsville, Ala.).
The expression profiles from treated and untreated mice were compared and an additional constraint of a minimum expression ratio of 1 was applied to control false positives to 5%. The gene list was clustered and the genes showing upregulation at any of the time points considered were selected. […] Most of the genes listed in the table function in immune response or host-pathogen interaction. The table includes several cytokines and their receptors, genes involved in immune cell proliferation, and calcium-binding proteins that have a role in downstream signaling.

SMILES: CC(=O)c1ccccc1N [2AA, 2′-aminoacetophenone]
- Fold Change X14607 Lipocalin 2 (24 h after IP 2AA): 0.2 fold
- Fold Change AF220015 Rpt-1; regulatory protein, T lymphocyte 1 (96 h after IP 2AA): 0.5 fold
- Fold Change AF237910 Membrane-spanning 4-domains, subfamily A (96 h after IP 2AA): 0.0 fold
- Fold Change AI323359 Csfmr, colony stimulating factor IR, regulator of myeloid cell proliferation (96 h after IP 2AA): 0.0 fold
- Fold Change AI462015 Nuclear factor of kappa light chain gene enhancer in B-cells inhibitor, alpha (96 h after IP 2AA): 0.4 fold
- Fold Change AI648846 Solute carrier family 6 (96 h after IP 2AA): 3.7 fold
- Fold Change AV026617 FBJ osteosarcoma oncogene (96 h after IP 2AA): 0.0 fold
- Fold Change AV229143 Interferon activated gene (202A) (96 h after IP 2AA): 6.8 fold
- Fold Change AV318494 Myeloid cell leukemia sequence 1 (96 h after IP 2AA): 0.3 fold
- Fold Change BB193024 Interferon-induced transmembrane protein-2 (96 h after IP 2AA): 0.1 fold
- Fold Change BB241535 Suppressor of cytokine signaling 3 (96 h after IP 2AA): 0.3 fold
- Fold Change BB769628 Colony stimulating factor 2 receptor, beta 1 (96 h after IP 2AA): 3.2 fold
- Fold Change BB784999 Triggering receptor expressed on myeloid cells 1 (96 h after IP 2AA): 4.6 fold
- Fold Change BB831725 Suppressor of cytokine signaling 3 (96 h after IP 2AA): 2.0 fold
- Fold Change BC003839 Myeloid cell leukemia sequence 1 (Mcl1) (96 h after IP 2AA): −0.4 fold
- Fold Change BC010291 Interferon-inducible protein (Cd225) (96 h after IP 2AA): −0.3 fold
- Fold Change BC011092 Chemokine (C-C) receptor 1 (96 h after IP 2AA): −0.7 fold
- Fold Change BC011437 IL-1β (96 h after IP 2AA): 0.2 fold
- Fold Change BC012653 Chemokine (C-X3-C) receptor 1 (96 h after IP 2AA): 0.0 fold
- Fold Change BC021916 EMAPI, cytokine activity (96 h after IP 2AA): −0.3 fold
- Fold Change BC022943 Lymphocyte cytosolic protein 1 (96 h after IP 2AA): −0.4 fold
- Fold Change BE285634 Interleukin-1 receptor accessory protein (96 h after IP 2AA): −1.1 fold
- Fold Change NM_008039 Receptor activity [formyl peptide receptor, related sequence 2] (Fpr-rs2) (96 h after IP 2AA): 0.2 fold
- Fold Change NM_008677 p40phox; intracellular signaling cascade neutrophil cytosolic factor 4 (Ncf4) (96 h after IP 2AA): 0.0 fold
- Fold Change NM_008879 Pls2, L-fimbrin, calcium ion binding lymphocyte cytosolic proteing 1 (Lep 1) (96 h after IP 2AA): 0.0 fold
- Fold Change NM_009883 Nuclear factor induced by IL-6 (NF-IL6) (96 h after IP 2AA): −0.1 fold
- Fold Change NM_011087 Paired-Ig-like receptor A1 (Piral) (96 h after IP 2AA): 0.2 fold
- Fold Change NM_011313 Cacy; calcium binding protein A6 (calcyclin)cyclin-dependent protein kinase (96 h after IP 2AA): 0.5 fold
- Fold Change NM_011315 Saa-3 lipid transported activity acute phase response (96 h after IP 2AA): 1.5 fold
- Fold Change NM_011355 PU.1, transcription factor complex cell growth and/or maintenance (96 h after IP 2AA): 9.2 fold
- Fold Change NM_011940 Interferon-activatable protein (Ifi202) (96 h after IP 2AA): 9.4 fold
- Fold Change NM_011999 DCIR; C-type (calcium dependent, carbohydrate recognition domain) lectin (96 h after IP 2AA): 5.3 fold
- Fold Change NM_030691 Integral to membrane immunoglobulin superfamily, member 6 (Igsf6) (96 h after IP 2AA): 0.0 fold
- Fold Change NM_030694 Interferon-induced transmembrane protein-3 (96 h after IP 2AA): 0.2 fold
- Fold Change U05264 Glycoprotein 49B (Gp49b) (96 h after IP 2AA): 0.6 fold
- Fold Change U72644 Leukocyte specific transcript 1 (96 h after IP 2AA): −0.2 fold
- Fold Change X14607 Lipocalin 2 (96 h after IP 2AA): 0.2 fold
- Fold Change AF220015 Rpt-1; regulatory protein, T lymphocyte 1 (192 h after IP 2AA): 0.6 fold
- Fold Change AF237910 Membrane-spanning 4-domains, subfamily A (192 h after IP 2AA): 0.5 fold
- Fold Change AI323359 Csfmr, colony stimulating factor IR, regulator of myeloid cell proliferation (192 h after IP 2AA): 0.3 fold
- Fold Change AI462015 Nuclear factor of kappa light chain gene enhancer in B-cells inhibitor, alpha (192 h after IP 2AA): 0.7 fold
- Fold Change AI648846 Solute carrier family 6 (192 h after IP 2AA): 7.8 fold
- Fold Change AV026617 FBJ osteosarcoma oncogene (192 h after IP 2AA): 10.5 fold
- Fold Change AV229143 Interferon activated gene (202A) (192 h after IP 2AA): 6.2 fold
- Fold Change AV318494 Myeloid cell leukemia sequence 1 (192 h after IP 2AA): 1.2 fold
- Fold Change BB193024 Interferon-induced transmembrane protein-2 (192 h after IP 2AA): 0.3 fold
- Fold Change BB241535 Suppressor of cytokine signaling 3 (192 h after IP 2AA): 1.0 fold
- Fold Change BB769628 Colony stimulating factor 2 receptor, beta 1 (192 h after IP 2AA): 5.2 fold
- Fold Change BB784999 Triggering receptor expressed on myeloid cells 1 (192 h after IP 2AA): 0.0 fold
- Fold Change BB831725 Suppressor of cytokine signaling 3 (192 h after IP 2AA): 5.9 fold
- Fold Change BC003839 Myeloid cell leukemia sequence 1 (Mcl1) (192 h after IP 2AA): 0.1 fold
- Fold Change BC010291 Interferon-inducible protein (Cd225) (192 h after IP 2AA): −0.3 fold
- Fold Change BC011092 Chemokine (C-C) receptor 1 (192 h after IP 2AA): −0.3 fold
- Fold Change BC011437 IL-1β (192 h after IP 2AA): 0.6 fold
- Fold Change BC012653 Chemokine (C-X3-C) receptor 1 (192 h after IP 2AA): 0.0 fold
- Fold Change BC021916 EMAPI, cytokine activity (192 h after IP 2AA): −0.2 fold
- Fold Change BC022943 Lymphocyte cytosolic protein 1 (192 h after IP 2AA): −0.1 fold
- Fold Change BE285634 Interleukin-1 receptor accessory protein (192 h after IP 2AA): −0.2 fold
- Fold Change NM_008039 Receptor activity [formyl peptide receptor, related sequence 2] (Fpr-rs2) (192 h after IP 2AA): 0.2 fold
- Fold Change NM_008677 p40phox; intracellular signaling cascade neutrophil cytosolic factor 4 (Ncf4) (192 h after IP 2AA): 0.1 fold
- Fold Change NM_008879 Pls2, L-fimbrin, calcium ion binding lymphocyte cytosolic proteing 1 (Lep 1) (192 h after IP 2AA): 0.0 fold
- Fold Change NM_009883 Nuclear factor induced by IL-6 (NF-IL6) (192 h after IP 2AA): −0.1 fold
- Fold Change NM_011087 Paired-Ig-like receptor A1 (Piral) (192 h after IP 2AA): 0.1 fold
- Fold Change NM_011313 Cacy; calcium binding protein A6 (calcyclin)cyclin-dependent protein kinase (192 h after IP 2AA): 1.4 fold
- Fold Change NM_011315 Saa-3 lipid transported activity acute phase response (192 h after IP 2AA): −0.2 fold
- Fold Change NM_011355 PU.1, transcription factor complex cell growth and/or maintenance (192 h after IP 2AA): 6.0 fold
- Fold Change NM_011940 Interferon-activatable protein (Ifi202) (192 h after IP 2AA): 9.1 fold
- Fold Change NM_011999 DCIR; C-type (calcium dependent, carbohydrate recognition domain) lectin (192 h after IP 2AA): 9.6 fold
- Fold Change NM_030691 Integral to membrane immunoglobulin superfamily, member 6 (Igsf6) (192 h after IP 2AA): 5.6 fold
- Fold Change NM_030694 Interferon-induced transmembrane protein-3 (192 h after IP 2AA): 0.6 fold
- Fold Change U05264 Glycoprotein 49B (Gp49b) (192 h after IP 2AA): 0.9 fold
- Fold Change U72644 Leukocyte specific transcript 1 (192 h after IP 2AA): 0.1 fold
- Fold Change X14607 Lipocalin 2 (192 h after IP 2AA): 0.2 fold
- genes with >2× expression differences at least at one point vs control mice (IP 2AA, blood 0, 6, 24, 96, 192 hr): 835 genes
- genes involved in the P38 MAPK pathway induced (post-2AA treatment): 7/8
